Laboratory results taken from PMC10983001, “Development of Cytotoxic GW7604-Zeise’s Salt Conjugates as Multitarget Compounds with Selectivity for Estrogen Receptor- Positive Tumor Cells” (Journal of Medicinal Chemistry, 2024).

Experiments:
[1] = test system: COX-1; design: method as in PMID 29848978; conditions: 10 μM, incubation time 10 min; cited from earlier work
[2] = Stability in organic solutions (1H NMR); assay type: physicochemical; conditions: DMSO-d6, measured after 5 min / immediately after dissolution
Procedure: Furthermore, it needs to be clarified whether organic solvent molecules are capable of ligand exchange reactions at the PtCl3 unit and form corresponding reaction/degradation products of the GW7604-Alk-PtCl3 complexes. Therefore, ^1H NMR experiments were performed with noncoordinating [e.g., acetone-d6, methanol-d4] and coordinating [e.g., acetonitrile-d3 , DMF-d7, dimethyl sulfoxide-d6 (DMSO-d6)] solvents. It should further be assessed whether the solvents are suitable for preparing stock solutions for structural characterization or in vitro testing.
The solutions (concentrations of 4.5–5.0 mM) were stored in NMR tubes at room temperature (rt) after being purged with argon.

[3] = test system: TSA-201 cells; assay: MTT assay of metabolic activity, noncancerous TSA-201; assay type: cell-based, human; conditions: 72 h, MTT; read-out: IC50 TSA-210
Procedure: (§1) The GW7604-Alk-PtCl3 complexes (with exclusion of GW7604-Prop-PtCl3) were investigated for cytotoxic effects in SKBr3 (ER-negative, COX-2-positive, Figure 6), MCF-7 (ERα-positive, COX-negative, Figure 6), and noncancerous TSA-201 (human embryonal kidney) cells at concentrations of 10–30 μM using an established MTT (3-(4,5-dimethylthiazol-2-yl)-2,5-diphenyltetrazolium bromide) assay.[60],[69]
(§2) After incubation for 72 h, the amounts of surviving, metabolically active cells were quantified based on their ability to transform the water-soluble yellow dye MTT to a purple formazan, which can be analyzed by UV–vis spectroscopy.
(§3) The exponentially growing cells were seeded at a density of 1750 (MCF-7), 2000 (SKBr3), and 1250 (TSA-201) cells/well into clear flat-bottom 96-well plates in triplicate. Following 24 h of incubation at 37 °C in a humidified atmosphere (5% CO2/95% air), the compounds [freshly prepared stock solutions in DMF, diluted with DMEM to the desired concentration (final DMF concentration of 0.1% (v/v))] were added to reach the indicated concentrations. After another 72 h of incubation, the cellular metabolic activity was measured employing an MTT assay. By adding predissolved MTT reagent in PBS at a final concentration of 0.5 mg/mL, the metabolic activity can be determined via an enzymatic conversion to a purple formazan salt. After 3 h, the medium was aspirated, and 200 μL of DMSO was added to dissolve the formed formazan crystals. The absorbance was measured at 570 and 690 nm (turbidity assessment) using an EnSpire plate reader (PerkinElmer, Waltham, MA, USA). Solvent-treated cells without a compound served as the positive control. Metabolic activity was calculated by the following equation [drawing 1]

[4] = test system: SKBr3 cells; assay: MTT assay of metabolic activity, SKBr3; assay type: cell-based, human; conditions: 72 h, MTT
Procedure: as §1, §2, §3

[5] = test system: MCF-7 cells; assay: MTT assay of metabolic activity, MCF-7; assay type: cell-based, human; conditions: 72 h, MTT; read-out: IC50 MCF-7
Procedure: as §1, §2, §3

[6] = target: T1, human recombinant COX-2 (Homo sapiens, UniProt P35354); assay type: biochemical; conditions: 20 μM, incubation 10 min
T1 construct: purchased Cayman Chemicals
T1 sequence (P35354 18-604): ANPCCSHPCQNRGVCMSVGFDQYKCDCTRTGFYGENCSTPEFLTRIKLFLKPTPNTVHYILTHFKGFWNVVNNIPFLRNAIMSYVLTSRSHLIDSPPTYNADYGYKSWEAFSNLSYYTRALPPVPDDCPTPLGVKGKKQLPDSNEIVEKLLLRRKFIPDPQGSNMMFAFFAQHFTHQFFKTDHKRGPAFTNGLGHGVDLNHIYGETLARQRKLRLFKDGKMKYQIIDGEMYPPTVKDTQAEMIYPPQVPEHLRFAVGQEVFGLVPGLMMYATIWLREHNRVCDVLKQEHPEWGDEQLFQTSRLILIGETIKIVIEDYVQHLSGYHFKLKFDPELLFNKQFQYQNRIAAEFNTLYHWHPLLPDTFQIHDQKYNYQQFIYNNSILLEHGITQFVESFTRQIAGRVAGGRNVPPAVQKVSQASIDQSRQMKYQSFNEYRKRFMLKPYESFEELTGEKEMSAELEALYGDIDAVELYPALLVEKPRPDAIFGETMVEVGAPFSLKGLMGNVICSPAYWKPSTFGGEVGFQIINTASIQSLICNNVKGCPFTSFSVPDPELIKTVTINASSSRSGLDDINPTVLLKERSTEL
Procedure: (§4) COX-1/2 inhibition was evaluated in an established assay on isolated isoenzymes. After incubation with the drugs (concentration: 20 μM) for 10 min, the remaining COX activity was measured by an enzyme-linked immunosorbent assay (ELISA).
(§5) The incubation time of the compounds with the respective isoenzymes was exactly 10 min. The results are presented as the mean ± SEM of three independent experiments, with two replicates of each experiment. […] Graphs were drawn using GraphPad Prism 8.0.

[7] = target: T2, human recombinant COX-1 (Homo sapiens, UniProt P23219); assay type: biochemical; conditions: 20 μM, incubation 10 min
T2 construct: purchased Cayman Chemicals
Procedure: as §4, §5

[8] = test system: COX-2; design: method as in PMID 29848978; conditions: comparable concentration (10 μM); cited from earlier work
[9] = test system: tumor cells; design: method as in PMID 25604474; conditions: cited from earlier work

T2 sequence (P23219 24-599): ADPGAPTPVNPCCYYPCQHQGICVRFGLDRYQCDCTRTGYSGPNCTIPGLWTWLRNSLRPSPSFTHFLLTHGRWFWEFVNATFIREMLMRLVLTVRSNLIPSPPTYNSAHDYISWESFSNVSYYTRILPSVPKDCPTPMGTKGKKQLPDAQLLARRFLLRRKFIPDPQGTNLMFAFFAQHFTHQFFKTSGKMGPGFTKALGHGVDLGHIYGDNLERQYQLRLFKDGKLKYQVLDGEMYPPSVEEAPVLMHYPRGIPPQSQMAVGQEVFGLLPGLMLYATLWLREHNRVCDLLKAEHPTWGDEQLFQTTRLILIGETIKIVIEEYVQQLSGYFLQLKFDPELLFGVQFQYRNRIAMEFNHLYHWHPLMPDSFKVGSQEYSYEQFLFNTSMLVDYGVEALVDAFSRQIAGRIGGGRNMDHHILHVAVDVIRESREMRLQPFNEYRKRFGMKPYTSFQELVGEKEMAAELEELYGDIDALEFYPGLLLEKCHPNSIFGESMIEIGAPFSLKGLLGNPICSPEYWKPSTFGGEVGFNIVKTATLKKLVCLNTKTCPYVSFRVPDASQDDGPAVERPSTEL

C=C.O.[Cl][Pt-]([Cl])[Cl].[K+] [Zeise’s salt, K[PtCl3(C2H4)]]
COX-1 inhibition [1]: 100%
stability in DMSO-d6 [2]: gas bubbling occurred from the released ethylene
IC50 [3]: > 20 µM
IC50 [4]: > 20 µM
IC50 [5]: > 20 µM
% COX-2 inhibition [6]: 0%
% COX-1 inhibition [7]: 83%
COX-2 inhibition [8]: inactive
cytotoxicity against tumor cells in vitro [9]: no cytotoxicity
